Tests used:
[1] = system: Mcl-1-/- mouse embryonic fibroblasts (MEF); test: Cell viability assay for Mcl-1-/- mouse embryonic fibroblasts (CellTiter-Glo); format: cell-based; conditions: Fibroblast, 1% Fetal Bovine Serum, read-out: MEF Mcl-1-/- KO cell viability results (EC50)
Description: a. Cell Viability Assay for Mcl-1^−/− Mouse Embryonic Fibroblasts (MEF):
Neutralization of both […] and Mcl-1 anti-apoptotic proteins in normal cells is required before a cell undergoes apoptosis via the downstream Bax/Bak pathway See, Chen. L. et al. Mol. Cell (2005) 17, 393-403; Willis, S. N. et al. Genes Dev. (2005) 19, 1294-1305. A compound that only targets Bcl-xL should not affect normal cells, but could kill certain cancer cells if they rely more on Bcl-xL and less on other anti-apoptotic proteins, e.g. Mcl-1, for survival. To mirror this, compounds of the invention were tested for its effect on survival of wild type (wt) mouse embryo fibroblasts (MEFs), Bax/Bak double knockout (BB DKO) MEFs, MEFs that expressed Noxa, and MEFs that expressed Bad. Noxa specifically neutralizes Mcl-1. […] MEFs that express Noxa mirror cancer cell types that are reliant on Bcl-xL for survival and should be much more sensitive to killing by a Bcl-xL targeting compound than MEFs where both Bcl-xL and Mcl-1 are protective.
In this assay, Mcl-1^(−/−) cells were used to confirm that cell apoptosis in the presence of BH3 mimetic small molecules was due to predominantly Bcl-xL inactivation. This inactivation leaves Bax/Bak unconstrained and results in apoptosis. The […]-GLO Luminescent Cell Viability Assay is a homogeneous method of determining the number of viable cells in culture based on quantitation of the ATP present. The amount of ATP correlates with the presence of metabolically active cells such that following cell lysis the amount of ATP present is proportional to the amount of luminescence measured.
Mcl-1^(−/−) mouse embryonic fibroblasts (MEFs) are an adherent cell line prepared in house. MEFs were grown in Iwaki 75 cm^2 tissue culture flasks (cat #3123-075) with FMA media which consists of: • 89% DME Kelso • 10% heat-inactivated foetal calf serum (FCS) (Hyclone cat #SH30396.03) • 1% 10 mM asparagine (Fluka cat #11149) • 275 μl of a 1:2000 dilution of 2-mercaptoethanol is added to the final 500 ml volume of FMA (Sigma cat #M7522; diluted in MT-PBS)
FMA was stored at 4° C. and used at 37° C. MEFs were cultured in FMA media and harvested in MT-PBS and trypsin. For MEF cell viability assays, cells were seeded separately in plates with 10% FCS-FMA and 1% FCS-FMA. […]
Automated Systems that can be used in this assay include: 1) Multidrop—The MULTIDROP 384 (ThermoLabsystems) dispenser was used to dispense cells aseptically into the assay plates: 2) MiniTrak—The […] system from Perkin Elmer was used for titration of the compound plates; 3) Zymark—The ZYMARK SCICLONE ALH3000 System with 100 nL pintool head was used for compound addition to the cells; 4) EnVision—The ENVISION plate reader was used to measure the viability via the detection of the luminescence. […]

Bcl-xL = target: T1, Bcl-xL (Homo sapiens, UniProt Q07817); test: Alpha Screen Bcl-xL binding assay, competition with Bim26-mer; conditions: values listed in the order of Table 1; read-out: Alphascreen results (IC50)
T1 construct: made in house
T1 sequence (Q07817 whole entry, species assumed): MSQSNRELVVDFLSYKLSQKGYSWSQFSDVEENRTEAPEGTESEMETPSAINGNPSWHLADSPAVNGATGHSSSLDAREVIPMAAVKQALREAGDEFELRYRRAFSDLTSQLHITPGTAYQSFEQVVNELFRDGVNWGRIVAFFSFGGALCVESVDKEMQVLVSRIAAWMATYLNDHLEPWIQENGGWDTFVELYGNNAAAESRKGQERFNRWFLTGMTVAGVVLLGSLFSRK
Description: The measurement of competition of compounds of the invention with Bim26-mer for a Bcl-2 family protein binding site using an Alpha Screen Bcl-xL Binding Assay:
The BH3 proteins ALPHASCREEN™ assay was used to identify active small molecules Bcl-2 family protein screen. e.g., Bcl-xL, hmMcl-1 screen. To determine an accurate estimation of the IC50, the compounds were routinely tested at starting concentrations, 100 μM and/or 1 μM and serially titrated 3 fold over 11 dilutions.
The beads come in close proximity when the protein and the peptides interact. Donor beads contain a photosensitiser that converts oxygen to an excited form of O2 at an excitation of 680 nm. Energy is transformed from the singlet oxygen and reacts with chemiluminescers on the acceptor bead, resulting in light emission at 520-620 nm. […] With this information, the IC50 of each compound was calculated
GST-Bcl-xL, GST-hmMcl-1 and biotinylated GST proteins were prepared in-house and were stored as stock solutions at −80° C. The biotinylated-Bak, and biotinylated-Bim peptides were purchased from Auspep and were stored as 500 μM stock solutions in 100% DMSO at −80° C. The ALPHASCREEN™ GST (Glutathione-S-Transferase) Detection Kit was obtained from Perkin Elmer Lifesciences (Cat #6760603R). The Proxiplates, white 384 well flat-Bottom plates were purchased from Interpath Services, Melbourne (Cat #784075). The seals to cover the plates were purchased from Proscience. Melbourne (Cat#784075). DMSO was purchased from AnalaR. The 384 deep well plates and the Polypropylene 50 μL, V bottom polypropylene compound plates were purchased from Matrical.
Compounds of the invention were prepared as 10 mM stocks with 100% DMSO on the day prior to performing the assay. […] To achieve a final compound concentration of 1 μM, in a separate matrical plate, 28 μL of 100% DMSO and 2 μL of 10 mM compound was added to a well, mixed well. 2 μL of this solution was taken and added to 38 μL of 100% DMSO. 20 μL of this solution was added to the test matrical plate. Several control compounds were included in the test plates. For the control wells 15 μL 100% DMSO only was added to the appropriate wells of each plate. The compound plates were then serially diluted 2 fold using the MiniTrak. Once titrations were complete, the compound plate was immediately covered with a foil seal to prevent evaporation.
The assay and bead buffers were prepared fresh. Each titrated compound plate was assayed in duplicate. The following volumes were sufficient to run 12 Proxiplates (4 assay plates run in duplicate in each of Bclxl, hmMcl and counter assays)
Protein and Peptide Preparation; and Assay Performance • 1. The assay and bead buffers were used to prepare the acceptor and donor solutions. ALPHASCREEN™ beads are light sensitive and therefore prepared in a darkened room. 2.5 μL of beads were added per 1 mL of buffer. • 2. The volume of protein or peptide to add was calculated using the following formula:
[formula] • C1=Final Concentration of protein/peptide • C2=Stock Concentration of protein/peptide • V1=Total Volume of Acceptor/Donor Solution • V2=Volume of stock protein/Peptide to add to Acceptor/Donor solution • 3. The assay components were prepared as separate Acceptor and Donor Solutions. The Acceptor Solution contained Acceptor heads and target protein, while the Donor Solution contained Donor beads and biotinylated peptide.
• 4. After the solutions were prepared, they were left to incubate for 30 minutes at room temperature to allow the beads to bind to the protein and the peptide. • 5. 50 μL of Bcl-xL solution, 50 μL of hmMcl-1 solution and 50 µL of biotinylated-GST were added into separate deep wells on an assay plate. A control […]. Assay/Bead buffer was added separate well plates (no protein). • 6.

| SMILES | EC50 [1] [µM] | IC50 (Bcl-xL) [µM] |
| --- | --- | --- |
| CC(C)Oc1ccc(-c2sc(-c3ccc4c(c3)N(C(=O)Nc3nc5ccccc5s3)CCC4)nc2C(=O)O)cc1 [Example 79, 2-(1-(benzo[d]thiazol-2-ylcarbamoyl)-1,2,3,4-tetrahydroquinolin-7-yl)-5-(4-isopropoxyphenyl)thiazole-4-carboxylic acid] | 0.21 | 0.006 |
| O=C(O)c1nc(-c2ccc3c(c2)N(C(=O)Nc2nc4ccccc4s2)CCC3)sc1/C=C/c1ccccc1 [Example 74, (E)-2-(1-(benzo[d]thiazol-2-ylcarbamoyl)-1,2,3,4-tetrahydroquinolin-7-yl)-5-styrythiazole-4-carboxylic acid] | 0.06 | 0.003 |

— patent US9067928B2 (Genentech, Inc., priority 2008, dated 2015)
